According to paper PMC7182600 (Influenza and Other Respiratory Viruses, 2020):

Target: NA of rPhuket3073/Yamagata (wild‐type) (Influenza B virus, UniProt A0A1S5RAG6)
Type: biochemical
Conditions: read-out: IC50 values of NA inhibitors

Chain of NA of rPhuket3073/Yamagata (wild‐type) (A0A1S5RAG6 entry or part of it, added parts left off): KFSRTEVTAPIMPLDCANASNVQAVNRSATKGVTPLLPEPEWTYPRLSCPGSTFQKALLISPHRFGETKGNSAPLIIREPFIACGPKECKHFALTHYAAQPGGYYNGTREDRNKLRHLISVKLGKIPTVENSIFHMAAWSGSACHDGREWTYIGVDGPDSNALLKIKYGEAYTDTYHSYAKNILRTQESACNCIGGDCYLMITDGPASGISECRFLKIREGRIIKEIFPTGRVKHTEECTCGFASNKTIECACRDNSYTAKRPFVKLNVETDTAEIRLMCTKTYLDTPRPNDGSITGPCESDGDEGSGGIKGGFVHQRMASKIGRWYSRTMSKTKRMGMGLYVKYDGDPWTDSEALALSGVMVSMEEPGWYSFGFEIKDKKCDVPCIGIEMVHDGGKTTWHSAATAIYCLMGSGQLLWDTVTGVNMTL

Substance: Peramivir
- IC50: 0.5 nM
